For the experiment, the system named is R223X stop codon in the mutated luciferase gene, ADXC8 luciferase reporter cell line. Kind of experiment: cells. The following applies: ADXC8 cells, 24 hours; for pC100%: negative logarithm of the concentration giving the same response as 200 μM G418; for Fold Over Control: maximum fold response relative to 200 μM G418; for Emax / EC (100% of 200 uM G418 response): 24 h; for Emax: read-out: Fold Over Control, maximum fold response relative to 200 μM G418; for EC (100% of 200 uM G418 response): read-out: pC100%, negative logarithm of the concentration giving the same response as 200 μM G418. The class given is cell-based.

`CNc1nc(NC2CNCC2C(F)F)nc2nc(C)cc(C)c12` (single isomer, unassigned) [Example 430]: the pC100% entry was “++ (pC100% > 5.0 ≤ 6.0)”.

Regarding `CNc1nc(NC2CC3CCC2N3)nc2nc(C)cc(C)c12` (centres unmarked) [Example 518, N^2-(-7-azabicyclo[2.2.1]heptan-2-yl)-N^4,5,7-trimethylpyrido[2,3-d]pyrimidine-2,4-diamine], the “Fold Over Control” value is “## (Fold over Ctrl > 1 ≤ 30)” and the pC100% result is “+ (pC100% > 4.0 ≤ 5.0)”.

Regarding `CN1CCC(Nc2nc(N)c3ccc(-c4ccccc4O)nc3n2)CC1` [Example 106], the Emax was 0 to 100% and the EC (100% of 200 uM G418 response) is more than 100 µM.

Take `CNc1nc(N[C@H]2CN(C)C[C@H]2F)nc2nc(C)cc(C)c12` [Example 340]: the Emax fell in the range of 100 to 3000% and the EC (100% of 200 uM G418 response) lay in the range of 1 to 10 µM.

With `Cc1cc(C)c2c(N)nc(NCC(C)(C)CN(C)C)nc2n1` [Example 149], the Emax lay in the range of 0 to 100% and the EC (100% of 200 uM G418 response) is more than 31.6 µM.

In the case of `Cc1nc2nc(NC3CCN(C)CC3)nc(N)c2cc1-c1cnn(C)c1` [Example 677], the Emax lay in the range of 0 to 100% and the EC (100% of 200 uM G418 response) was more than 100 µM.

On to `CNc1nc(N[C@H]2CN(C3CCC3)C[C@@H]2O)nc2nc(C)cc(C)c12` [Example 624], for which the Emax was in the range of 100 to 3000% and the EC (100% of 200 uM G418 response) is 1 to 10 µM.

For `Cc1c2c(nc3nc(NC4CCN(Cc5ccccc5C(=O)O)CC4)nc(N)c13)CCC2` [Example 675], the Emax is 0 to 100% and the EC (100% of 200 uM G418 response) is more than 31.6 µM.

Regarding `Cc1cc(C)c2c(N)nc(NC3CC(C)(C)N(C)C(C)(C)C3)nc2n1` [Example 171], the Emax fell in the range of 100 to 3000% and the EC (100% of 200 uM G418 response) was in the range of 10 to 100 µM.

With `CC(C)Oc1ccc2c(N)nc(NC3CCN(C)CC3)nc2n1` [Example 38, 7-isopropoxy-N^2-(1-methylpiperidin-4-yl)pyrido[2,3-d]pyrimidine-2,4-diamine], the Emax is 0 to 100% and the EC (100% of 200 uM G418 response) was more than 100 µM.

For `Cc1cc(C)c2c(N)nc(NC3CC4(CCNCC4)C3)nc2n1` [Example 200], the Emax fell in the range of 0 to 100% and the EC (100% of 200 uM G418 response) is more than 31.6 µM.

Regarding `Cc1cc(C)c2c(N)cc(NCCCCN(C)C)nc2n1` [Example 254, N^2-(4-(dimethylamino)butyl)-5,7-dimethyl-1,8-naphthyridine-2,4-diamine], the Emax was in the range of 100 to 3000% and the EC (100% of 200 uM G418 response) lay within 10 to 100 µM.

On to `COc1cnc2nc(NC3CCN(C)CC3)nc(N)c2c1` [Example 241, 6-methoxy-N^2-(1-methylpiperidin-4-yl)pyrido[2,3-d]pyrimidine-2,4-diamine], for which the Emax is 0 to 100% and the EC (100% of 200 uM G418 response) is more than 31.6 µM.

Consider `Cc1cc(C2CCC2)nc2nc(NC3CCN(C)CC3)nc(N)c12` [Example 521, 7-cyclobutyl-5-methyl-N^2-(1-methylpiperidin-4-yl)pyrido[2,3-d]pyrimidine-2,4-diamine], for which the EC (100% of 200 uM G418 response) was 1 to 10 µM.

On to `CN1CCC(Nc2nc(N)c3ccc(-c4cncn4C)nc3n2)CC1` [Example 114], for which the Emax lay within 0 to 100% and the EC (100% of 200 uM G418 response) was more than 100 µM.

In the case of `CNc1nc(NC2C3CCC2CN(C(C)C)C3)nc2nc(C)cc(C)c12` (single isomer, unassigned) [Example 436], the “Fold Over Control” value is on record as “## (Fold over Ctrl > 1 ≤ 30)” and the pC100% entry is listed as “+ (pC100% > 4.0 ≤ 5.0)”.

Turning to `CCC(=O)O[C@H]1CN(C)C[C@@H]1Nc1nc(NC)c2c(C)c3c(nc2n1)CCC3` [Example 682], the Emax was in the range of 100 to 3000% and the EC (100% of 200 uM G418 response) fell in the range of 0.1 to 1 µM.

Take `COCC1CN(CCCNc2nc(N)c3c(C)cc(C)nc3n2)C1` [Example 188]: the Emax was 0 to 100% and the EC (100% of 200 uM G418 response) is more than 31.6 µM.

With `CNc1nc(N[C@H]2CN(C)C[C@H]2OC)nc2nc(C)cc(C)c12` [Example 369], the Emax was 100 to 3000% and the EC (100% of 200 uM G418 response) is 1 to 10 µM.

With `CNc1nc(NC2CCCN3CCCC23)nc2nc(C)cc(C)c12` (centres unmarked) [Example 597], the pC100% entry is listed as “++ (pC100% > 5.0 ≤ 6.0)”.

For `CNc1nc(N[C@H]2CNC[C@H]2O)nc2nc3c(c(C)c12)CCC3` [Example 360], the Emax fell in the range of 100 to 3000% and the EC (100% of 200 uM G418 response) was 10 to 100 µM.

`CNc1nc(N[C@H]2C3CC[C@@H]2NC3)nc2nc(C)cc(C)c12` [Example 444]: the Emax was 100 to 3000% and the EC (100% of 200 uM G418 response) was in the range of 10 to 100 µM.

Take `Cc1cc(C)c2c(N)nc(NC3CCN(Cc4cccc(C(=O)N(C)C)c4)CC3)nc2n1` [Example 462]: the Emax fell in the range of 0 to 100% and the EC (100% of 200 uM G418 response) was more than 31.6 µM.

Take `CN1CCC(Nc2nc(N)c3ccc(-c4ccccc4Cl)nc3n2)CC1` [Example 115, 7-(2-chlorophenyl)-N^2-(1-methylpiperidin-4-yl) pyrido[2,3-d]pyrimidine-2,4-diamine]: the Emax was in the range of 100 to 3000% and the EC (100% of 200 uM G418 response) was in the range of 1 to 10 µM.

Turning to `CNc1nc(N[C@H]2CNC[C@H]2CO)nc2nc(C)cc(C)c12` [Example 418], the EC (100% of 200 uM G418 response) is 1 to 10 µM.

As for `Cc1cc(C)c2c(N)nc(NC3CCN(Cc4cncs4)CC3)nc2n1` [Example 459], the Emax lay in the range of 100 to 3000% and the EC (100% of 200 uM G418 response) was in the range of 1 to 10 µM.

For the compound `Cc1cc(C)c2c(N)nc(NC3CCNC[C@@H]3F)nc2n1` (some centres unmarked) [Example 206], the Emax lay within 100 to 3000% and the EC (100% of 200 uM G418 response) fell in the range of 1 to 10 µM.

Regarding `CNc1cc(N[C@@H]2CCN(C)C2)nc2nc3c(c(C)c12)CCC3` [Example 258, (R)—N^4,5-dimethyl-N^2-(1-methylpyrrolidin-3-yl)-7,8-dihydro-6H-cyclopenta[b][1,8]naphthyridine-2,4-diamine], the Emax was in the range of 100 to 3000% and the EC (100% of 200 uM G418 response) lay in the range of 0.1 to 1 µM.

As to `Cc1cc(C)c2c(N)nc(NC3C[C@H]4CC[C@@H](C3)N4)nc2n1` (some centres unmarked) [Example 177], the Emax was in the range of 100 to 3000% and the EC (100% of 200 uM G418 response) is 0.1 to 1 µM.

With `CNc1nc(N[C@H]2CNC[C@@H](O)C2)nc2nc(C)cc(C)c12` [Example 610], the EC (100% of 200 uM G418 response) is 1 to 10 µM.

Take `Cc1cc(C)c2c(N)nc(NC3CCN(CC4CC4)CC3)nc2n1` [Example 145]: the Emax was 100 to 3000% and the EC (100% of 200 uM G418 response) was in the range of 1 to 10 µM.

Regarding `Cc1cc(C)c2c(N)nc(NC3CCN(Cc4ccc(C#N)cc4Br)CC3)nc2n1` [Example 561], the Emax lay within 100 to 3000% and the EC (100% of 200 uM G418 response) was in the range of 1 to 10 µM.

As for `CNc1nc(N[C@H]2CN(C)CC[C@H]2O)nc2nc(C)cc(C)c12` [Example 607], the EC (100% of 200 uM G418 response) fell in the range of 1 to 10 µM.

On to `Cc1cc(C2CC2)nc2nc(NC3CCN(C)CC3)nc(N)c12` [Example 601], for which the EC (100% of 200 uM G418 response) lay in the range of 1 to 10 µM.

With `COc1ccc(CCN2CCC(Nc3nc(N)c4c(C)cc(C)nc4n3)CC2)cc1` [Example 201], the Emax is 100 to 3000% and the EC (100% of 200 uM G418 response) lay within 1 to 10 µM.

`Cc1cc(C)c2c(N)nc(NC3CCN(Cc4ccns4)CC3)nc2n1` [Example 467]: the Emax fell in the range of 100 to 3000% and the EC (100% of 200 uM G418 response) fell in the range of 1 to 10 µM.

As for `Cc1cc(C)c2c(N)nc(N[C@H]3CCNCC3(F)F)nc2n1` [Example 220], the Emax lay within 100 to 3000% and the EC (100% of 200 uM G418 response) lay within 1 to 10 µM.

With `Cc1cc(C)c2c(N)nc(NC3CCN(Cc4ccc(C(N)=O)cc4)CC3)nc2n1` [Example 476], the Emax lay within 100 to 3000% and the EC (100% of 200 uM G418 response) was 10 to 100 µM.

Regarding `CNc1nc(N[C@H]2CNC[C@@H]2F)nc2nc3c(c(C)c12)CCC3` [Example 342], the Emax was in the range of 100 to 3000% and the EC (100% of 200 uM G418 response) is 0.1 to 1 µM.

Turning to `CNc1nc(N[C@H]2CN(C)C[C@@H]2C)nc2nc(C)cc(C)c12` [Example 381], the Emax was 100 to 3000% and the EC (100% of 200 uM G418 response) lay within 1 to 10 µM.

For the compound `Cc1nc2nc(NC3CCN(C)CC3)nc(N)c2c(C)c1Br` [Example 22, 6-bromo-5,7-dimethyl-N^2-(1-methylpiperidin-4-yl)pyrido[2,3-d]pyrimidine-2,4-diamine], the Emax is 100 to 3000% and the EC (100% of 200 uM G418 response) lay within 1 to 10 µM.

`COc1ccnc2nc(NC3CCN(C)CC3)nc(N)c12` [Example 281]: the Emax lay in the range of 100 to 3000% and the EC (100% of 200 uM G418 response) lay within 10 to 100 µM.

Consider `CNc1nc(N[C@@H]2C[C@H](O)CN(C)C2)nc2nc(C)cc(C)c12` [Example 603], for which the Emax was 100 to 3000% and the EC (100% of 200 uM G418 response) is 1 to 10 µM.

`Cc1cc(C)c2c(N)nc(NCCN(C)C)nc2n1` [Example 142, N^2-(2-(dimethylamino)ethyl)-5,7-dimethylpyrido[2,3-d]pyrimidine-2,4-diamine]: the EC (100% of 200 uM G418 response) fell in the range of 1 to 10 µM.

In the case of `CNc1nc(N[C@H]2CN(C)C[C@@H]2OC(=O)C(C)(C)C)nc2nc3c(c(C)c12)CCC3` [Example 681], the Emax lay in the range of 100 to 3000% and the EC (100% of 200 uM G418 response) lay in the range of 0.1 to 1 µM.

For `Cc1cc(C)c2c(N)nc(NC[C@@H]3CN(C(=O)OC(C)(C)C)CCO3)nc2n1` [Example 136], the Emax is 0 to 100% and the EC (100% of 200 uM G418 response) was more than 100 µM.

Consider `CNc1nc(N[C@H]2CNC[C@@H]2O)nc2nc(C)c3c(c12)CCC3` [Example 344], for which the EC (100% of 200 uM G418 response) was in the range of 0.01 to 0.1 µM.

In the case of `CNc1nc(NC2CNCC2C#N)nc2nc(C)cc(C)c12` (single isomer, unassigned) [Example 452], the “Fold Over Control” value is recorded as “## (Fold over Ctrl > 1 ≤ 30)” and the pC100% entry is given as “+ (pC100% > 4.0 ≤ 5.0)”.

As for `CNc1nc(N[C@H]2CN(C)CC[C@@H]2O)nc2nc(C)cc(C)c12` [Example 609], the EC (100% of 200 uM G418 response) was 1 to 10 µM.

With `Cc1cc(C)c2c(N)nc(NC[C@H]3CNCCO3)nc2n1` [Example 161], the Emax fell in the range of 100 to 3000% and the EC (100% of 200 uM G418 response) was 10 to 100 µM.

Regarding `CNc1nc(NC2CCN(C)CC2)nc2ncccc12` [Example 39, N^4-methyl-N^2-(1-methylpiperidin-4-yl)pyrido[2,3-d]pyrimidine-2,4-diamine], the Emax lay within 100 to 3000% and the EC (100% of 200 uM G418 response) was 10 to 100 µM.
